According to patent US20200361895A1, “NOVEL SULFONAMIDE CARBOXAMIDE COMPOUNDS” (Inflazome Limited, priority 2017, published 2020):
pIC50: −log10 of the molar value. Counter-ions that a name gives are not always drawn.

Key:
NLRP3 [1] = target: T1, NLRP3 (Homo sapiens, UniProt Q96P20); experiment: THP-1 cells pyroptosis assay (LPS + nigericin, resazurin readout; THP IC50); format: cell-based; parameters: Seed THP-1 cells (25,000 cells/well) containing 1.0 μg/ml LPS in 40 μl of RPMI medium; host or cells: THP-1 cells
Summary of the method: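 IC50 from 4-parameter fit of resazurin fluorescence (100 μM, 1-2 hrs), reflecting surviving cells after pyroptosis. LPS-primed (1 μg/ml) THP-1 cells in FBS-free RPMI got compound for 3 hrs at 37° C (top 10 μM, half-log, 8 points), then nigericin 5 μM for 1 hr.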

NLRP3 [2] = target: T1, NLRP3; experiment: Human whole blood IL1β release assay (LPS + nigericin, AlphaLisa IL-1β; HWB IC50); format: cell-based; parameters: Human whole blood in Li-heparin tubes was obtained from healthy donors from a volunteer donor panel; from tissue; host or cells: human whole blood from healthy donors; settings: IL-1β release
Summary of the method: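 IL-1β in plasma supernatant quantified by AlphaLisa after nigericin (10 μM final, 1 h, 37 °C) triggering of human whole blood that had been preincubated 3 h with LPS (1 μg/ml) plus compound (half-log, 8 points, from 10 μM). IC50 by variable-slope four-parameter regression.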

T1 sequence (Q96P20 whole entry): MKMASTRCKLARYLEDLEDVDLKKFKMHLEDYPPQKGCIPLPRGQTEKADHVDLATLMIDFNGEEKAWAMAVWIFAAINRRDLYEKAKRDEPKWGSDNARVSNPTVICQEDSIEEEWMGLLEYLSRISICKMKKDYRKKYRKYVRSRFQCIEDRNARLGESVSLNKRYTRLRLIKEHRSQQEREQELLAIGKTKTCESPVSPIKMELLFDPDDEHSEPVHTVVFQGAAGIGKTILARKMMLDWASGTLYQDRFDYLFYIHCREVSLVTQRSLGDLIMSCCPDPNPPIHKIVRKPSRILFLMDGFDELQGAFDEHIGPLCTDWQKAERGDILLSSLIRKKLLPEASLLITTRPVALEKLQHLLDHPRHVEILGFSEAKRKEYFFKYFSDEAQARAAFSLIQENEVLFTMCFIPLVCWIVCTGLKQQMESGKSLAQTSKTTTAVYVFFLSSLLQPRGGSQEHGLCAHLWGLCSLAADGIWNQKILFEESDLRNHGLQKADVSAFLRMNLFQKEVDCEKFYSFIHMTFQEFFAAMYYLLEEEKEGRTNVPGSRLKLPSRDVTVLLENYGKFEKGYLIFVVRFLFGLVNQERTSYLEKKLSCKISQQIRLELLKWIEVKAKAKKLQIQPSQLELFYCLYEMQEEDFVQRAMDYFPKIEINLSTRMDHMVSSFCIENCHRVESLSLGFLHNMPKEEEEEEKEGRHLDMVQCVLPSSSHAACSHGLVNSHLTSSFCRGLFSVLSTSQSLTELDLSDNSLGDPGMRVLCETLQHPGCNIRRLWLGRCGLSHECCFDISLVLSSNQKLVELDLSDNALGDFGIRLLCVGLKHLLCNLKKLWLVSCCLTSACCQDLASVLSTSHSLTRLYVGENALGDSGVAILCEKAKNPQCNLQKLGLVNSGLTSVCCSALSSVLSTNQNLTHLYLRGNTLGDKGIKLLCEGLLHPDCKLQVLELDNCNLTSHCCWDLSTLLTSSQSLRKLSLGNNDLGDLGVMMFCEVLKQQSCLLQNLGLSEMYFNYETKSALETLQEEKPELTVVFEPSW

| SMILES | pIC50 (NLRP3 [1]) | pIC50 (NLRP3 [2]) |
| --- | --- | --- |
| COc1cc(-c2ccc3c(c2NC(=O)NS(=O)(=O)c2cc(C4CCCN4C)n(C(C)C)n2)CCC3)ccn1 (stereo not drawn) [Example 191, 1-Isopropyl-N-((5-(2-methoxypyridin-4-yl)-2,3-dihydro-1H-inden-4-yl)carbamoyl)-5-(1-methylpyrrolidin-2-yl)-1H-pyrazole-3-sulfonamide, sodium salt] | ≥ 6.30 | ≥ 6.00 |
| CCC(c1cc(S(=O)(=O)NC(=O)Nc2c(-c3ccnc(OC)c3)ccc3c2CCC3)nn1C(C)C)N(C)C (stereo not drawn) [Example 192, 5-(1-(Dimethylamino)propyl)-1-isopropyl-N-((5-(2-methoxypyridin-4-yl)-2,3-dihydro-1H-inden-4-yl)carbamoyl)-1H-pyrazole-3-sulfonamide] | ≥ 6.30 | ≥ 6.30 |
| COc1cc(-c2ccc3c(c2NC(=O)NS(=O)(=O)c2cc(CN(C)C)n(C(C)C)n2)CCC3)ccn1 [Example 193, 5-((Dimethylamino)methyl)-1-isopropyl-N-((5-(2-methoxypyridin-4-yl)-2,3-dihydro-1H-inden-4-yl)carbamoyl)-1H-pyrazole-3-sulfonamide] | ≥ 6.30 | ≥ 6.30 |
| CC(C)(C#N)n1ccc(S(=O)(=O)NC(=O)Nc2c(-c3ccnc(OC(F)F)c3)ccc3c2CCO3)n1 [Example 195, 1-(2-Cyanopropan-2-yl)-N-((5-(2-(difluoromethoxy)pyridin-4-yl)-2,3-dihydrobenzofuran-4-yl)carbamoyl)-1H-pyrazole-3-sulfonamide] | ≥ 6.30 | ≥ 6.30 |
| COc1cc(-c2ccc3c(c2NC(=O)NS(=O)(=O)c2ccn(C(C)(C)C#N)n2)CCO3)ccn1 [Example 196, 1-(2-Cyanopropan-2-yl)-N-((5-(2-methoxypyridin-4-yl)-2,3-dihydrobenzofuran-4-yl)carbamoyl)-1H-pyrazole-3-sulfonamide] | ≥ 6.30 | ≥ 6.30 |
| CNCC(C)(C)n1ccc(S(=O)(=O)NC(=O)Nc2c(-c3ccnc(OC)c3)ccc3c2CCC3)n1 [Example 197, N-((5-(2-Methoxypyridin-4-yl)-2,3-dihydro-1H-inden-4-yl)carbamoyl)-1-(2-methyl-1-(methylamino)propan-2-yl)-1H-pyrazole-3-sulfonamide, sodium salt] | ≥ 6.30 | ≥ 6.30 |
| CN(C)CC(C)(C)n1ccc(S(=O)(=O)NC(=O)Nc2c(-c3ccnc(OC4CC4)c3)ccc3c2CCO3)n1 [Example 198, N-((5-(2-Cyclopropoxypyridin-4-yl)-2,3-dihydrobenzofuran-4-yl)carbamoyl)-1-(1-(dimethylamino)-2-methylpropan-2-yl)-1H-pyrazole-3-sulfonamide, sodium salt] | ≥ 6.30 | ≥ 6.30 |
| COc1cc(-c2ccc3c(c2NC(=O)NS(=O)(=O)c2ccn(C4CCN(C)C4)n2)CCC3)ccn1 (stereo not drawn) [Example 199, N-((5-(2-Methoxypyridin-4-yl)-2,3-dihydro-1H-inden-4-yl)carbamoyl)-1-(1-methylpyrrolidin-3-yl)-1H-pyrazole-3-sulfonamide, sodium salt] | ≥ 6.30 | ≥ 6.30 |
| CN(C)CC(C)(C)n1ccc(S(=O)(=O)NC(=O)Nc2c(-c3ccnc(OC4CC4)c3)ccc3c2CCC3)n1 [Example 200, N-((5-(2-Cyclopropoxypyridin-4-yl)-2,3-dihydro-1H-inden-4-yl)carbamoyl)-1-(1-(dimethylamino)-2-methylpropan-2-yl)-1H-pyrazole-3-sulfonamide, sodium salt] | ≥ 6.30 | ≥ 6.30 |
| COc1cc(-c2ccc3c(c2NC(=O)NS(=O)(=O)c2ccn(C(C)(C)C#N)n2)CCC3)ccn1 [Example 201, 1-(2-Cyanopropan-2-yl)-N-((5-(2-methoxypyridin-4-yl)-2,3-dihydro-1H-inden-4-yl)carbamoyl)-1H-pyrazole-3-sulfonamide, sodium salt] | ≥ 6.30 | ≥ 6.30 |
| CN(C)CC(C)(C)n1ccc(S(=O)(=O)NC(=O)Nc2c(-c3ccnc(C#N)c3)ccc3c2CCC3)n1 [Example 202, N-((5-(2-Cyanopyridin-4-yl)-2,3-dihydro-1H-inden-4-yl)carbamoyl)-1-(1-(dimethylamino)-2-methylpropan-2-yl)-1H-pyrazole-3-sulfonamide] | ≥ 6.30 | ≥ 6.30 |
| CN(C)CC(C)(C)n1ccc(S(=O)(=O)NC(=O)Nc2c(-c3cccnc3)ccc3c2CCC3)n1 [Example 203, 1-(1-(Dimethylamino)-2-methylpropan-2-yl)-N-((5-(pyridin-3-yl)-2,3-dihydro-1H-inden-4-yl)carbamoyl)-1H-pyrazole-3-sulfonamide] | ≥ 6.30 | ≥ 6.30 |

Other lines, results leading:

| pIC50 (NLRP3 [1]) | pIC50 (NLRP3 [2]) | SMILES |
| --- | --- | --- |
| ≥ 6.30 | ≥ 5.30 | CC(C)n1ccc(S(=O)(=O)NC(=O)Nc2c(-c3cccnc3)cc(F)c3c2CCC3)n1 [Example 206, N-((7-Fluoro-5-(pyridin-3-yl)-2,3-dihydro-1H-inden-4-yl)carbamoyl)-1-isopropyl-1H-pyrazole-3-sulfonamide] |
| ≥ 6.00 | ≥ 5.30 | CC(C)n1ccc(S(=O)(=O)NC(=O)Nc2c(-c3cccnc3)ccc3ccccc23)n1 [Example 207, 1-Isopropyl-N-((2-(pyridin-3-yl)naphthalen-1-yl)carbamoyl)-1H-pyrazole-3-sulfonamide] |
| ≥ 6.30 | ≥ 5.30 | COc1cc(-c2ccc3ccccc3c2NC(=O)NS(=O)(=O)c2ccn(C(C)C)n2)ccn1 [Example 209, 1-Isopropyl-N-((2-(2-methoxypyridin-4-yl)naphthalen-1-yl)carbamoyl)-1H-pyrazole-3-sulfonamide] |
| ≥ 6.30 | ≥ 5.30 | COc1cc(-c2cc(F)cc(C3CC3)c2NC(=O)NS(=O)(=O)c2ccn(C(C)C)n2)ccn1 [Example 210, N-((2-Cyclopropyl-4-fluoro-6-(2-methoxypyridin-4-yl)phenyl)carbamoyl)-1-isopropyl-1H-pyrazole-3-sulfonamide] |
| ≥ 6.30 | ≥ 5.30 | COc1cc(-c2cc(F)cc(C3CCCC3)c2NC(=O)NS(=O)(=O)c2ccn(C(C)C)n2)ccn1 [Example 211, N-((2-Cyclopentyl-4-fluoro-6-(2-methoxypyridin-4-yl)phenyl)carbamoyl)-1-isopropyl-1H-pyrazole-3-sulfonamide] |
| ≥ 6.30 | ≥ 5.30 | COc1cc(-c2ccc3c(c2NC(=O)NS(=O)(=O)c2ccn(C(C)C)n2)CCCC3)ccn1 [Example 213, 1-Isopropyl-N-((2-(2-methoxypyridin-4-yl)-5,6,7,8-tetrahydronaphthalen-1-yl)carbamoyl)-1H-pyrazole-3-sulfonamide] |
| ≥ 6.30 | ≥ 6.00 | CCOc1cc(-c2ccc3c(c2NC(=O)NS(=O)(=O)c2ccn(C(C)C)n2)CCC3)ccn1 [Example 214, N-((5-(2-Ethoxypyridin-4-yl)-2,3-dihydro-1H-inden-4-yl)carbamoyl)-1-isopropyl-1H-pyrazole-3-sulfonamide] |
| ≥ 6.30 | ≥ 6.30 | CC(C)n1ccc(S(=O)(=O)NC(=O)Nc2c(-c3ccnc(C#N)c3)ccc3c2CCC3)n1 [Example 215, N-((5-(2-Cyanopyridin-4-yl)-2,3-dihydro-1H-inden-4-yl)carbamoyl)-1-isopropyl-1H-pyrazole-3-sulfonamide] |
| ≥ 6.30 | ≥ 5.30 | CC(C)Oc1cc(-c2ccc3c(c2NC(=O)NS(=O)(=O)c2ccn(C(C)C)n2)CCC3)ccn1 [Example 216, N-((5-(2-Isopropoxypyridin-4-yl)-2,3-dihydro-1H-inden-4-yl)carbamoyl)-1-isopropyl-1H-pyrazole-3-sulfonamide] |
